The series relates to patients with KCS with inflammation. Kind of series: four-week topical use of a Loteprednol etabonate ophthalmic formulation in patients with KCS with inflammation. It counts as in vivo, human. From the text: U.S. Patent Application. Publication No. 20030008853 discloses 22,29-epoxy-3,4,6,7,29-pentahydroxy-,(3α,4β,5α,6α,7-β,14β,22S)-stigmastan-15-one as useful for treating dry eye disorders and other disorders requiring the wetting of the eye. This publication further notes that corticosteroids, such as prednisolone, dexamethasone, fluoromethalone, hydrocortisone, loteprednol, triamcinolone, etc., cannot be used for prolonged therapy in dry eye patients without causing side effects. This publication further notes that steroid-related complications including increased intraocular pressure and cataract formation have been observed in dry eye patients treated with corticosteroids after several months of therapy.

As for `CCOC(=O)O[C@]1(C(=O)OCCl)CC[C@H]2[C@@H]3CCC4=CC(=O)C=C[C@]4(C)[C@H]3[C@@H](O)C[C@@]21C` [Loteprednol etabonate, (11β,17α),-17-[(Ethoxycarbonyl)oxy]-11-hydroxy-3-oxoandrosta-1,4-diene-17-carboxylic acid chloromethyl ester], under “patient subsets with moderate to severe inflammatory component”, the “treatment effect in subsets of patients with a moderate to severe inflammatory component (more severe KCS)” value is on record as “differential treatment effect, which was in some cases significant”. Where the note is “used for four weeks”, the “efficacy in the management of patients with KCS with inflammation” value is listed as “efficacious” and the “tolerability in the management of patients with KCS with inflammation” value is listed as “well tolerated”.
